# Assays:
# [1] = Inhibition of AKT phosphorylation at S473 in human BT20 cells after 1 hr by sandwich ELISA; format: cell-based; conditions: BT-20, 1 h
# [2] = Metabolic stability in human liver microsomes assessed as extraction ratio; format: ADME; conditions: read-out: ERH
# [3] = Kinetic solubility of the compound; format: physicochemical; conditions: read-out: Kinetic_solubility
# [4] = target: Phosphatidylinositol 4,5-bisphosphate 3-kinase catalytic subunit alpha isoform (Mus musculus, UniProt P42337); assay: Inhibition of mouse PI3K alpha expressed in insect cells coexpressing p85 subunit assessed as PI(3,4,5)P3 formation using PI(4,5)P2 as substrate by measuring displacement of TAMRA-labeled PI(3,4,5)P3 from Grip1 PH domain after 35 mins by ligand displacement fluorescence polarization assay
# [5] = target: Serine/threonine-protein kinase mTOR (Homo sapiens, UniProt P42345)
# [6] = Drug absorption in rat; format: ADME, organism-based; conditions: in vivo, read-out: Drug absorption
# Rattus norvegicus [7] = assay: Drug metabolism in iv dosed rat plasma assessed as 2-amino-8-((cis)-4-hydroxycyclohexyl)-6-(6-methoxypyridin-3-yl)-4-methylpyrido[2,3-d]pyrimidin-7(8H)-one level; format: ADME, organism-based; conditions: in vivo
# Mus musculus [8] = assay: Drug metabolism in po dosed mouse plasma assessed as 2-amino-8-((cis)-4-hydroxycyclohexyl)-6-(6-methoxypyridin-3-yl)-4-methylpyrido[2,3-d]pyrimidin-7(8H)-one level; format: ADME, organism-based; conditions: in vivo
# Rattus norvegicus [9] = assay: Drug metabolism in iv dosed rat plasma assessed as 2-amino-8-((trans)-4-hydroxycyclohexyl)-6-(6-methoxypyridin-3-yl)-4-methylpyrido[2,3-d]pyrimidin-7(8H)-one level; format: ADME, organism-based; conditions: in vivo
# Mus musculus [10] = assay: Drug metabolism in po dosed mouse plasma assessed as 2-amino-8-((trans)-4-hydroxycyclohexyl)-6-(6-methoxypyridin-3-yl)-4-methylpyrido[2,3-d]pyrimidin-7(8H)-one level; format: ADME, organism-based; conditions: in vivo
# [11] = Inhibition of AKT phosphorylation at S473 in human SKOV3 cells after 1 hr by sandwich ELISA; format: cell-based; conditions: SK-OV-3, 1 h
# [12] = Clearance in rat at 2 mg/kg, iv and 5 mg/kg, po by LC-MS/MS analysis; format: ADME, organism-based; conditions: in vivo
# Rattus norvegicus [13] = assay: Unbound clearance in rat at 2 mg/kg, iv and 5 mg/kg, po by LC-MS/MS analysis; format: ADME, organism-based; conditions: in vivo
# [14] = Volume of distribution at steady state in rat at 2 mg/kg, iv and 5 mg/kg, po by LC-MS/MS analysis; format: ADME, organism-based; conditions: in vivo, read-out: Vdss
# [15] = Half life in rat at 2 mg/kg, iv and 5 mg/kg, po by LC-MS/MS analysis; format: ADME, organism-based; conditions: in vivo
# [16] = Unbound fraction in rat plasma at 2 mg/kg, iv and 5 mg/kg, po by LC-MS/MS analysis; format: ADME, organism-based
# Sequence of Phosphatidylinositol 4,5-bisphosphate 3-kinase catalytic subunit alpha isoform (P42337 whole entry, the tested form may be a part, canonical isoform): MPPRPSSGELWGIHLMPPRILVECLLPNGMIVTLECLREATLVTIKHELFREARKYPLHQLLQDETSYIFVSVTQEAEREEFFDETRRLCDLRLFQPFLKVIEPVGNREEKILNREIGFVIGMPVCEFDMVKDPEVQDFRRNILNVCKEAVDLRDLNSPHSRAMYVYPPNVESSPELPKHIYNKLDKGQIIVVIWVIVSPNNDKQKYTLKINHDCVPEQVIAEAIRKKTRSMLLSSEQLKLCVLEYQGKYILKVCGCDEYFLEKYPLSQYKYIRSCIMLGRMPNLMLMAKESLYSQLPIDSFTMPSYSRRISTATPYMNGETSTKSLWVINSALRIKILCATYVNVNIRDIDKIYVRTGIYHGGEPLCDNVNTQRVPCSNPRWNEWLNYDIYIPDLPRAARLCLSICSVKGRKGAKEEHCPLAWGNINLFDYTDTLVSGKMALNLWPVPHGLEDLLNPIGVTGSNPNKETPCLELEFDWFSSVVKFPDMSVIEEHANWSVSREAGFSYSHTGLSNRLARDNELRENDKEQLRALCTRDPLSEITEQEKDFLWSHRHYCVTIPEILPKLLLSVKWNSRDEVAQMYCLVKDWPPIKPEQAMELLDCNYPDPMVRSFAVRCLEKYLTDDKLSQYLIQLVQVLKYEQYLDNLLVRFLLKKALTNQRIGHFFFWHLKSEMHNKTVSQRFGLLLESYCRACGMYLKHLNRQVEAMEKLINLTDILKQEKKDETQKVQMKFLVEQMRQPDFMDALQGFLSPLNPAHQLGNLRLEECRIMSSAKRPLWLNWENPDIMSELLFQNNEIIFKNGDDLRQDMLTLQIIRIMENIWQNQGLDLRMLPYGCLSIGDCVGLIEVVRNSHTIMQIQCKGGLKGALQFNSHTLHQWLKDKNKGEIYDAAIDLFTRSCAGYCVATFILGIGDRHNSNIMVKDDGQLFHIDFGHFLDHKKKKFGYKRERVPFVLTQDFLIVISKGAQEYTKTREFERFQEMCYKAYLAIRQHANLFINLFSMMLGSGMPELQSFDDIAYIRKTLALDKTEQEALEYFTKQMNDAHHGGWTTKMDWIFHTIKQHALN
SMILES,IC50 [1],hepatic extraction ratio [2],solubility kinetic [3],Ki [4],Ki [5],further results
COc1ccc(-c2cc3c(C)nc(N)nc3n(C3CCCC3)c2=O)cn1,16 nM,< 0.25,3.9 µM,1.4 nM,200 nM,Fa [6]: 28%
CNc1nc(C)c2cc(-c3ccc(OC)nc3)c(=O)n(C3CCCC3)c2n1,,,,1.1 nM,700 nM,
COc1ccc(-c2cc3c(C)nc(N)nc3n(C3CCOCC3)c2=O)cn1,,< 0.26,40 µM,3.6 nM,110 nM,
Cc1nc(N)nc2c1cc(-c1cccc(CO)c1)c(=O)n2C1CCCC1,,,,1.2 nM,82 nM,
COc1ccc(-c2cc3c(C)nc(N)nc3n([C@H]3CC[C@H](OCCO)CC3)c2=O)cn1 [PF-04691502],13 nM,,14 µM,,,IC50 [11]: 7.4 nM; clearance [12]: 5.2 mL/min/kg; CL free (Rattus norvegicus [13]): 25.9 mL/min/kg; Vd [14]: 1.39 L/kg; half-life [15]: 3.1 h; fraction unbound [16]: 0.202

# Second part, led by results:
IC50 [1],hepatic extraction ratio [2],solubility kinetic [3],Ki [4],Ki [5],SMILES,further results
15 nM,0.68,65 µM,1.4 nM,840 nM,CNc1nc(C)c2cc(-c3cccc(CO)c3)c(=O)n(C3CCCC3)c2n1,
12 nM,< 0.25,16 µM,0.9 nM,17 nM,COc1ccc(-c2cc3c(C)nc(N)nc3n([C@H]3CC[C@H](O)CC3)c2=O)cn1,Stability (Rattus norvegicus [7]): Unstable; Stability (Mus musculus [8]): Unstable
22 nM,< 0.26,60 µM,3 nM,90 nM,COc1ccc(-c2cc3c(C)nc(N)nc3n([C@H]3CC[C@@H](O)CC3)c2=O)cn1,Stability (Rattus norvegicus [9]): Unstable; Stability (Mus musculus [10]): Unstable
,< 0.26,144 µM,6.6 nM,150 nM,COc1ccc(-c2cc3c(C)nc(N)nc3n(C3CCOC3)c2=O)cn1 (stereo not given),
